# Several values for one entry are separate records, joined by “and”; a condition that tells them apart may be missing. Equal entries are not always repeated.
# Test: solvent given as SMILES
smiles,measurement,setting,value
CCOC(=O)C(Cc1ccc(O[Si]2(Oc3ccc(CC(NC(C)=O)C(=O)OCC)cc3)n3c4c5ccccc5c3/N=C3N=C(/N=c5/c6ccccc6/c(n52)=N/C2=NC(=N\4)/c4ccccc42)c2ccccc2\3)cc1)NC(C)=O (stereo unspecified),emission maximum,in CN(C)C=O,686 nm
Cc1ccc(O)c(-c2[nH]c(=O)n3c2-c2ccccc2C3=O)c1,emission maximum,in CC#N,480 nm
same,emission maximum,in CO,500 nm
same,emission maximum,in ClCCl,475 nm
COc1cc2cc(/C=C/c3ccc(/C=C(\C#N)C(=O)O)cc3)c(=O)oc2cc1OC,emission maximum,in CC#N,483 nm
CC1=N/C(=C\c2cc(C#N)cc(N(C)C)c2)C(=O)N1C,emission maximum,in C1CCOC1,544 nm
same,emission maximum,in CC#N,595 nm
same,emission maximum,in CCCCCC,475 nm
COc1cc(/C=C/c2nc3ccccc3o2)c(OC)cc1/C=C/c1nc(C)nc(/C=C/c2cc(OC)c(/C=C/c3nc4ccccc4o3)cc2OC)n1,emission maximum,in C1CCOC1,487 nm
same,emission maximum,in CC#N,502 nm
same,emission maximum,in ClC(Cl)Cl,494 nm
same,emission maximum,in ClCCl,496 nm
CC1=[N+]2C(=C(c3ccc(N4CCCCC4)cc3)c3ccc(C)n3[B-]2(F)F)C=C1,emission maximum,in C1CCCCC1,519 nm
same,emission maximum,in C1CCOC1,527 nm and 514 nm
same,emission maximum,in CC#N,519 nm
same,emission maximum,in CC(=O)C(C)(C)C,523 nm
same,emission maximum,in CC(C)=O,517 nm
same,emission maximum,in CCCCCC,520 nm
same,emission maximum,in CCOC(C)=O,518 nm
same,emission maximum,in CO,518 nm
same,emission maximum,in Cc1ccccc1,593 nm
same,emission maximum,in ClC(Cl)Cl,527 nm
CC(C)(C)c1ccc2c(c1)c1ncncc1c1c3ccccc3sc21,emission maximum,in ClCCl,414 nm
CCN(CC)c1ccc2c(-c3ccccc3C(=O)O)c3c([o+]c2c1)/C(=C/c1nc(-c2ccccc2)n2ccccc12)CCC3,emission maximum,in ClCCl,746 nm
Cc1cc(C)c2c(c1)c1cc(C)cc(C)c1n2-c1ccc2c(c1)Oc1ccccc1B2c1c(C(C)C)cc(C(C)C)cc1C(C)C,emission maximum,in Cc1ccccc1,443 nm
[NH3+]C(Cc1c[nH]c2ccccc12)C(=O)[O-] (stereo unspecified),emission maximum,in O,350 nm
COc1ccc(-c2oc3cccc4c5c(-c6ccc(OC)cc6)c(=N)oc6cccc(c2c34)c65)cc1,emission maximum,in ClC(Cl)Cl,505 nm
Cc1cc(C)c(C)c(-c2ccc3cc(C)c(=O)oc3c2)c1C,emission maximum,in C1CCCCC1,383 nm
same,emission maximum,in CC#N,388 nm
same,emission maximum,in CO,394 nm
CC(=O)c1cc2c(cc1F)NC(C)(C)CC2=O,emission maximum,in CC#N,417 nm
same,emission maximum,in CCO,457 nm
CCOC(=O)c1cc(C(=O)OCC)c2cc(NC(=O)C(F)(F)F)ccc2n1,emission maximum,in CCO,436 nm
C(=C\c1ncccn1)/c1ccc(-c2ccc(N(c3ccccc3)c3ccccc3)cc2)cc1,emission maximum,in ClCCl,530 nm
C/C(=C\c1ccc(Cl)cc1)c1nc2ccccc2s1,emission maximum,in C1CCCCC1,390 nm
same,emission maximum,in CO,400 nm
F[B-]1(F)n2c(-c3ccccc3)cc(-c3ccccc3)c2C(c2ccccc2)=C2C(c3ccccc3)=CC(c3ccccc3)=[N+]21,emission maximum,in C1CCOC1,597 nm
C(#Cc1cccs1)C(C#Cc1cccs1)=Cc1ccc(C=C(C#Cc2cccs2)C#Cc2cccs2)s1,emission maximum,in ClC(Cl)Cl,550 nm
O=C(c1ccncc1)c1ccc(-n2c3ccc(-n4c5ccccc5c5ccccc54)cc3c3cc(-n4c5ccccc5c5ccccc54)ccc32)cc1,emission maximum,in C1CCOC1,532.75 nm
same,emission maximum,in Cc1ccccc1,481.09 nm
same,emission maximum,in c1cc(-c2cccc(-n3c4ccccc4c4ccccc43)c2)cc(-n2c3ccccc3c3ccccc32)c1,487.5 nm
CN(C)c1ccc(C#Cc2cc(C#Cc3ccc(N(C)C)cc3)c3ccc4c(C#Cc5ccc(N(C)C)cc5)cc(C#Cc5ccc(N(C)C)cc5)c5ccc2c3c54)cc1,emission maximum,in ClCCl,562 nm
COCCC1=Cc2nc1ccc1[nH]c(cc1CCOC)c1nc(ccc3[nH]c2cc3CCO)C(CCOC)=C1,emission maximum,in Cc1ccccc1,643 nm
c1ccc(-n2c(-c3ccc(-c4ccc5c(c4)C4(c6ccccc6-5)c5ccccc5-c5ccc(-c6ccc(-c7nc8ccccc8n7-c7ccccc7)cc6)c6cccc4c56)cc3)nc3ccccc32)cc1 (stereo unspecified),emission maximum,in ClC(Cl)Cl,440 nm
C(=C\c1cccc(/C=C/c2c3ccccc3cc3ccccc23)c1)/c1ccncc1,emission maximum,in C1CCOC1,475 nm
CC1(C)Nc2cc3nc4cc(Cl)c(Cl)cc4nc3cc2N1,emission maximum,in CCO,506 nm
CCCCCCCCC1(CCCCCCCC)c2cc(-c3ccc(C=C4C(=O)c5ccccc5C4=O)cc3)ccc2-c2ccc(-c3ccc(C=C4C(=O)c5ccccc5C4=O)cc3)cc21,emission maximum,in C1CCOC1,531 nm
same,emission maximum,in CC(C)=O,568 nm
same,emission maximum,in CCCCCC,462 nm
same,emission maximum,in CS(C)=O,596 nm
same,emission maximum,in Cc1ccccc1,486 nm
same,emission maximum,in ClC(Cl)Cl,530 nm
CN(C)c1ccc(C2=Nc3ccc4c(C(F)(F)F)cc(C(F)(F)F)nc4[n+]3[B-](F)(F)O2)cc1,emission maximum,in ClCCl,642 nm
COc1ccc(/C=C/C=C/C2=NC3C(=O)NC(N)=NC3N2[C@H]2C[C@H](O)[C@@H](CO)O2)cc1 (stereo partly specified),emission maximum,in C1COCCO1,429 nm
same,emission maximum,in CC#N,441 nm
same,emission maximum,in CO,438 nm
CC(C)(C)c1ccc(-c2nc3ccccc3nc2-c2cc(-c3nc4ccccc4nc3-c3ccc(C(C)(C)C)cc3)cc(-n3c4ccccc4c4ccccc43)c2)cc1,emission maximum,in Cc1ccccc1,437 nm
COc1cc2oc(=O)c3c4ccc(N(C)C)cc4c4ccc5cccc6c(c1)c2c3c4c56,emission maximum,in C1CCOC1,577 nm
CN(C)c1ccc(C(=O)c2ccccc2)cc1,emission maximum,in C1CCCCC1,462 nm
same,emission maximum,in CC#N,602 nm
same,emission maximum,in CO,480 nm
same,emission maximum,in CS(C)=O,609 nm
same,emission maximum,in c1ccccc1,497 nm
Cc1cc(C)c(-c2cc3c(s2)-c2sc(-c4c(C)cc(C)cc4C)cc2P(c2ccccc2)(c2ccccc2)=[O+][B-]3(c2c(C)cc(C)cc2C)c2c(C)cc(C)cc2C)c(C)c1,emission maximum,in C1CCOC1,472 nm
Cc1cc(C(F)(F)F)nc2c1ccc1nc(-c3ccc(F)c(F)c3)cn12,emission maximum,in CC#N,460 nm
same,emission maximum,in CCCCCC,433 nm
same,emission maximum,in CCCCOC(C)=O,453 nm
same,emission maximum,in CCOC(C)=O,454 nm
same,emission maximum,in CO,456 nm
same,emission maximum,in Cc1ccccc1,451 nm
same,emission maximum,in ClC(Cl)Cl,448 nm
same,emission maximum,in ClCCl,451 nm
same,emission maximum,in c1ccccc1,450 nm
COc1ccc(C2=C3C(C)=CC(C)=[N+]3[B-](F)(F)n3c(/C=C/c4ccc(N(C)C)cc4)cc(C)c32)cc1,emission maximum,in C1CCCCC1,612 nm
same,emission maximum,in C1CCOC1,664 nm
same,emission maximum,in C1COCCO1,648 nm
same,emission maximum,in CC1CCCCC1,612 nm
same,emission maximum,in CC#N,717 nm
same,emission maximum,in CC(C)=O,695 nm
same,emission maximum,in CC(C)OC(C)C,629 nm
same,emission maximum,in CCC#N,710 nm
same,emission maximum,in CCCC#N,695 nm
same,emission maximum,in CCCCO,678 nm
same,emission maximum,in CCCCOCCCC,627 nm
same,emission maximum,in CCOC(C)=O,665 nm
same,emission maximum,in CCOCC,641 nm
same,emission maximum,in CN(C)C=O,718 nm
same,emission maximum,in CO,696 nm
same,emission maximum,in CS(C)=O,737 nm
same,emission maximum,in Cc1ccccc1,640 nm
same,emission maximum,in ClC(Cl)Cl,656 nm
CC(C)(C)c1ccc2c(c1)c1cc(C(C)(C)C)ccc1n2-c1cccc(-c2nc(-c3cccc(-n4c5ccc(C(C)(C)C)cc5c5cc(C(C)(C)C)ccc54)c3)nc(-c3cccc(P(=O)(c4ccccc4)c4ccccc4)c3)n2)c1,emission maximum,in C1CCOC1,514.41 nm
same,emission maximum,in CC#N,572.13 nm
same,emission maximum,in CC(C)=O,552.3 nm
same,emission maximum,in CN(C)C=O,532.99 nm
same,emission maximum,in Cc1ccccc1,481.21 nm
same,emission maximum,in ClC(Cl)Cl,511.48 nm
same,emission maximum,in ClCCl,532.99 nm
same,emission maximum,in O=P(c1ccccc1)(c1ccccc1)c1ccccc1Oc1ccccc1P(=O)(c1ccccc1)c1ccccc1,484 nm
CC(C)(C)c1ccc(-c2ccc3c(-c4ccc(C(C)(C)C)c5ccccc45)cc4c5cc(-c6ccc(C(C)(C)C)c7ccccc67)ccc5c(-c5ccc(C(C)(C)C)c6ccccc56)cc4c3c2)c2ccccc12,emission maximum,in ClCCl,405 nm
COc1ccc2cc(-c3ccc(S(C)(=O)=O)cc3)oc(=O)c2c1,emission maximum,in CCO,410 nm
same,emission maximum,in CCOC(C)=O,404 nm
same,emission maximum,in CN(C)C=O,410 nm
same,emission maximum,in CO,410 nm
same,emission maximum,in ClC(Cl)Cl,408 nm
Fc1nc(F)c(F)c(/C=C2/C(c3c(F)c(F)nc(F)c3F)=Cc3ccccc32)c1F,emission maximum,in CC#N,395 nm
N#C/C(=C\c1ccc(C(F)(F)F)cc1)c1nc(-c2ccc(Cl)cc2)cs1,emission maximum,in CC#N,490 nm
C(=C\c1nc2c(c(N3CCOCC3)n1)CCCC2)/c1ccccc1,emission maximum,in ClCCl,333 nm
COc1cc2oc(=O)c3c4ccc(C(=O)c5ccccc5)cc4c4ccc5cccc6c(c1)c2c3c4c56,emission maximum,in C1CCOC1,443 nm
CCCCC(CC)Cn1c2cc(C#N)ccc2c2ccc(C#Cc3ccc4ccc5ccc(C#Cc6ccc7c8ccc(C#N)cc8n(CC(CC)CCCC)c7c6)c6ccc3c4c56)cc21 (stereo unspecified),emission maximum,in ClCCl,458 nm
C(=C\c1cc(-c2ccccc2)c(/C=C/c2ccc(N(c3ccccc3)c3ccccc3)cc2)cc1-c1ccccc1)/c1ccc(N(c2ccccc2)c2ccccc2)cc1,emission maximum,in ClCCl,495 nm
COC(=O)/C=C/c1sc(-c2ccc(N(C)C)s2)c(-c2cn(C)c3ccccc23)c1O,emission maximum,in CC#N,663 nm
CCCCCCCCCCCCC(CCCCCCCCCC)Cn1c2cc(C=C(C#N)C#N)c3cccc4c5cccc6c(C=C(C#N)C#N)cc1c(c65)c2c34 (stereo unspecified),emission maximum,in C1CCCCC1,603 nm
same,emission maximum,in CC#N,641 nm
same,emission maximum,in Cc1ccccc1,623 nm
same,emission maximum,in ClCCl,635 nm
c1ccc2nc(-n3c4ccccc4c4ccccc43)c(-n3c4ccccc4c4ccccc43)nc2c1,emission maximum,in C1CCOC1,516.79 nm
same,emission maximum,in CCCCCC,467.18 nm
same,emission maximum,in Cc1ccccc1,503 nm
C(=C\c1ccc(/C=C/c2ccc(N(c3ccccc3)c3ccccc3)cc2)cc1)/c1ccc(/C=C/c2ccc(N(c3ccccc3)c3ccccc3)cc2)cc1,emission maximum,in ClCCl,510 nm
COc1ccc2cc(/C=C/C3=C4CCc5ccccc5C4=[O+][B-](F)(F)O3)ccc2c1,emission maximum,in ClCCl,564 nm
C#Cc1ccc2cc(/C=C/C(=O)OCC)c(=O)oc2c1,emission maximum,in CCO,412 nm
CCN(CC)c1ccc(/C=N/c2cc3nc4ccccc4nc3cc2/N=C/c2ccc(N(CC)CC)cc2O)c(O)c1,emission maximum,in CC#N,551 nm
same,emission maximum,in CN(C)C=O,599 nm
same,emission maximum,in ClCCl,568 nm
COc1ccc(C(=O)COc2c(C)c(=O)n3c(=O)c(C)c(COC(=O)c4ccccc4Cl)n23)cc1,emission maximum,in CCO,460 nm
